In the NIST ThermoML archive (doi:10.1016/j.jct.2011.07.021):

What was measured:
[1] = refractive index (Na D-line) (dimensionless); settings: 101.33 kPa, Liquid, Standard Abbe refractometry
[2] = relative permittivity at zero frequency (dimensionless); settings: 101.33 kPa, Liquid, Parallel plate capacitor
[3] = 101.33 kPa, Liquid, Vibrating tube method
[4] = relative permittivity at zero frequency (dimensionless); xn = mol fraction of the nth substance listed; settings: 101 kPa, Liquid, Parallel plate capacitor
[5] = refractive index (Na D-line) (dimensionless); xn = mol fraction of the nth substance listed; settings: 101 kPa, Liquid, Standard Abbe refractometry

CCC(O)CO (centres undefined) [1,2-butanediol]
Settings	mass density, [3] [kg/m3]	refractive index, [1]	relative permittivity at zero frequency, [2]
298.2 K	998.67	1.4372	22.143
308.2 K	991.15	1.433	20.365
318.2 K	983.55	1.4288	18.661

CCC(O)CO (centres undefined) [1,2-butanediol] + CCCCC(CC)CO
x1 = 1
Settings	refractive index, 298.2 K	refractive index, 308.2 K	refractive index, 318.2 K	relative permittivity at zero frequency, 298.2 K	relative permittivity at zero frequency, 308.2 K	relative permittivity at zero frequency, 318.2 K
[4]	–	–	–	22.143	20.365	18.661
[5]	1.4372	1.4312	1.4281	–	–	–

C1COCCO1 [1,4-dioxane] + CCC(O)CO
x2 = 0
Settings	refractive index, 298.2 K	refractive index, 308.2 K	refractive index, 318.2 K	relative permittivity at zero frequency, 298.2 K	relative permittivity at zero frequency, 308.2 K	relative permittivity at zero frequency, 318.2 K
[4]	–	–	–	2.228	2.209	2.187
[5]	1.4201	1.4142	1.4084	–	–	–

C1COCCO1 [1,4-dioxane]
Settings	mass density, [3] [kg/m3]	refractive index, [1]	relative permittivity at zero frequency, [2]
298.2 K	1027.9	1.4201	2.228
308.2 K	1016.11	1.4142	2.21
318.2 K	1005	1.4084	2.187

CCCCC(CC)CO (centres undefined) [2-ethyl-1-hexanol]
Settings	mass density, [3] [kg/m3]	refractive index, [1]	relative permittivity at zero frequency, [2]
298.2 K	830.62	1.4293	7.353
308.2 K	823.1	1.4252	6.361
318.2 K	814.91	1.4213	5.522
